According to ChEMBL document CHEMBL1152723, “Remarkable enhancement in the DNA-binding ability of C2-fluoro substituted pyrrolo[2,1-c][1,4]benzodiazepines and their anticancer potential” (2009):

Assays:
UACC-62 = test: Growth inhibition of human UACC62 cells after 48 hrs by sulforhodamine B protein assay; assay type: functional; conditions: UACC-62, 48 h
IGROV-1 = test: Growth inhibition of human IGROV1 cells after 48 hrs by sulforhodamine B protein assay; assay type: functional; conditions: IGROV-1, 48 h
OVCAR-3 = test: Growth inhibition of human OVCAR-3 cells after 48 hrs by sulforhodamine B protein assay; assay type: functional; conditions: OVCAR-3, 48 h
OVCAR-4 = test: Growth inhibition of human OVCAR4 cells after 48 hrs by sulforhodamine B protein assay; assay type: functional; conditions: OVCAR-4, 48 h
OVCAR-5 = test: Growth inhibition of human OVCAR5 cells after 48 hrs by sulforhodamine B protein assay; assay type: functional; conditions: OVCAR-5, 48 h
OVCAR-8 = test: Growth inhibition of human OVCAR8 cells after 48 hrs by sulforhodamine B protein assay; assay type: functional; conditions: OVCAR-8, 48 h
SK-OV-3 = test: Growth inhibition of human SKOV3 cells after 48 hrs by sulforhodamine B protein assay; assay type: functional; conditions: SK-OV-3, 48 h
786-0 = test: Growth inhibition of human 786-0 cells after 48 hrs by sulforhodamine B protein assay; assay type: functional; conditions: 786-0, 48 h
ACHN = test: Growth inhibition of human ACHN cells after 48 hrs by sulforhodamine B protein assay; assay type: functional
CAKI-1 = test: Growth inhibition of human Caki1 cells after 48 hrs by sulforhodamine B protein assay; assay type: functional; conditions: CAKI-1, 48 h
SN12C = test: Growth inhibition of human SN12C cells after 48 hrs by sulforhodamine B protein assay; assay type: functional
TK-10 = test: Growth inhibition of human TK10 cells after 48 hrs by sulforhodamine B protein assay; assay type: functional; conditions: TK-10, 48 h
UO-31 = test: Growth inhibition of human UO31 cells after 48 hrs by sulforhodamine B protein assay; assay type: functional; conditions: UO-31, 48 h
PC-3 = test: Growth inhibition of human PC3 cells after 48 hrs by sulforhodamine B protein assay; assay type: functional; conditions: PC-3, 48 h
DU-145 = test: Growth inhibition of human DU145 cells after 48 hrs by sulforhodamine B protein assay; assay type: functional; conditions: DU-145, 48 h
MCF7 = test: Growth inhibition of human MCF7 cells after 48 hrs by sulforhodamine B protein assay; assay type: functional; conditions: MCF7, 48 h
MDA-MB-231 = test: Growth inhibition of human MDA-MB-231 cells after 48 hrs by sulforhodamine B protein assay; assay type: functional; conditions: MDA-MB-231, 48 h
[1] = Growth inhibition of human Hs 578T cells after 48 hrs by sulforhodamine B protein assay; assay type: functional
MDA-MB-435 = test: Growth inhibition of human MDA-MB-435 cells after 48 hrs by sulforhodamine B protein assay; assay type: functional; conditions: MDA-MB-435, 48 h
BT-549 = test: Growth inhibition of human BT549 cells after 48 hrs by sulforhodamine B protein assay; assay type: functional; conditions: BT-549, 48 h
T47D = test: Growth inhibition of human T47D cells after 48 hrs by sulforhodamine B protein assay; assay type: functional
DNA = test: Binding affinity to calf thymus DNA assessed as change in melting temperature at a compound to DNA molar ratio of 1:5 at pH 7 by thermal denaturation assay; assay type: nucleic-acid assay; conditions: Bos taurus
[2] = target: T1, Type II restriction enzyme BamHI (Bacillus amyloliquefaciens) (UniProt P23940); test: Inhibition of Bacillus amyloliquefaciens BamH1-mediated pBR322 cleavage after 16 hrs by RED100-restriction endonuclease digestion assay
T1 sequence (whole entry): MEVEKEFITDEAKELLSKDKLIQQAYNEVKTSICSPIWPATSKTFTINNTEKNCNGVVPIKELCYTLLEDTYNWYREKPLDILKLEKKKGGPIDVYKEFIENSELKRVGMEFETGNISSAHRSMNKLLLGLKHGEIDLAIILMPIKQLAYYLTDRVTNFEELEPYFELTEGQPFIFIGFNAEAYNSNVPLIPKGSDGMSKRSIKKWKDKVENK

CCRF-CEM = test: Growth inhibition of human CCRF-CEM cells after 48 hrs by sulforhodamine B protein assay; assay type: functional
HL-60(TB) = test: Growth inhibition of human HL-60(TB) cells after 48 hrs by sulforhodamine B protein assay; assay type: functional; conditions: HL-60, 48 h
K562 = test: Growth inhibition of human K562 cells after 48 hrs by sulforhodamine B protein assay; assay type: functional; conditions: K562, 48 h
MOLT-4 = test: Growth inhibition of human MOLT4 cells after 48 hrs by sulforhodamine B protein assay; assay type: functional; conditions: MOLT-4, 48 h
[3] = Growth inhibition of human […] cells after 48 hrs by sulforhodamine B protein assay; assay type: functional
SR = test: Growth inhibition of human SR cells after 48 hrs by sulforhodamine B protein assay; assay type: functional
A549 = test: Growth inhibition of human A549 cells after 48 hrs by sulforhodamine B protein assay; assay type: functional; conditions: A549, 48 h
EKVX = test: Growth inhibition of human EKVX cells after 48 hrs by sulforhodamine B protein assay; assay type: functional
HOP-62 = test: Growth inhibition of human HOP62 cells after 48 hrs by sulforhodamine B protein assay; assay type: functional; conditions: HOP-62, 48 h
NCI-H226 = test: Growth inhibition of human NCI-H226 cells after 48 hrs by sulforhodamine B protein assay; assay type: functional; conditions: NCI-H226, 48 h
NCI-H23 = test: Growth inhibition of human NCI-H23 cells after 48 hrs by sulforhodamine B protein assay; assay type: functional; conditions: NCI-H23, 48 h
NCI-H322M = test: Growth inhibition of human NCI-H322M cells after 48 hrs by sulforhodamine B protein assay; assay type: functional
NCI-H460 = test: Growth inhibition of human NCI-H460 cells after 48 hrs by sulforhodamine B protein assay; assay type: functional; conditions: NCI-H460, 48 h
NCI-H522 = test: Growth inhibition of human NCI-H522 cells after 48 hrs by sulforhodamine B protein assay; assay type: functional; conditions: NCI-H522, 48 h
COLO 205 = test: Growth inhibition of human COLO205 cells after 48 hrs by sulforhodamine B protein assay; assay type: functional; conditions: COLO 205, 48 h
HCC 2998 = test: Growth inhibition of human HCC2998 cells after 48 hrs by sulforhodamine B protein assay; assay type: functional; conditions: HCC 2998, 48 h
HCT-116 = test: Growth inhibition of human HCT116 cells after 48 hrs by sulforhodamine B protein assay; assay type: functional; conditions: HCT-116, 48 h
HCT-15 = test: Growth inhibition of human HCT15 cells after 48 hrs by sulforhodamine B protein assay; assay type: functional; conditions: HCT-15, 48 h
HT-29 = test: Growth inhibition of human HT-29 cells after 48 hrs by sulforhodamine B protein assay; assay type: functional; conditions: HT-29, 48 h
KM12 = test: Growth inhibition of human KM12 cells after 48 hrs by sulforhodamine B protein assay; assay type: functional; conditions: KM12, 48 h
SW-620 = test: Growth inhibition of human SW620 cells after 48 hrs by sulforhodamine B protein assay; assay type: functional; conditions: SW-620, 48 h
SF-295 = test: Growth inhibition of human SF295 cells after 48 hrs by sulforhodamine B protein assay; assay type: functional; conditions: SF-295, 48 h
SF-539 = test: Growth inhibition of human SF539 cells after 48 hrs by sulforhodamine B protein assay; assay type: functional; conditions: SF-539, 48 h
SNB-19 = test: Growth inhibition of human SNB19 cells after 48 hrs by sulforhodamine B protein assay; assay type: functional; conditions: SNB-19, 48 h
SNB-75 = test: Growth inhibition of human SNB75 cells after 48 hrs by sulforhodamine B protein assay; assay type: functional; conditions: SNB-75, 48 h
U-251 = test: Growth inhibition of human U251 cells after 48 hrs by sulforhodamine B protein assay; assay type: functional; conditions: U-251, 48 h
LOX IMVI = test: Growth inhibition of human LOXIMVI cells after 48 hrs by sulforhodamine B protein assay; assay type: functional
Malme-3M = test: Growth inhibition of human MALME-3M cells after 48 hrs by sulforhodamine B protein assay; assay type: functional
SK-MEL-2 = test: Growth inhibition of human SK-MEL-2 cells after 48 hrs by sulforhodamine B protein assay; assay type: functional; conditions: SK-MEL-2, 48 h
SK-MEL-28 = test: Growth inhibition of human SK-MEL-28 cells after 48 hrs by sulforhodamine B protein assay; assay type: functional; conditions: SK-MEL-28, 48 h
UACC-257 = test: Growth inhibition of human UACC257 cells after 48 hrs by sulforhodamine B protein assay; assay type: functional; conditions: UACC-257, 48 h
A498 = test: Growth inhibition of human A498 cells after 48 hrs by sulforhodamine B protein assay; assay type: functional; conditions: A498, 48 h

Structure (SMILES): COc1cc2c(cc1OCCCOc1cc3c(cc1OC)C(=O)N1CC(F)(F)C[C@H]1C=N3)N=C[C@@H]1CC(F)(F)CN1C2=O
- GI50 (UACC-62): 410 nM
- GI50 (IGROV-1): 110 nM
- GI50 (OVCAR-3): 940 nM
- GI50 (OVCAR-4): 1450 nM
- GI50 (OVCAR-5): 750 nM
- GI50 (OVCAR-8): 420 nM
- GI50 (SK-OV-3): 600 nM
- GI50 (786-0): < 10 nM
- GI50 (ACHN): 650 nM
- GI50 (CAKI-1): < 10 nM
- GI50 (SN12C): 170 nM
- GI50 (TK-10): 3450 nM
- GI50 (UO-31): 1050 nM
- GI50 (PC-3): < 80 nM
- GI50 (DU-145): 370 nM
- GI50 (MCF7): 130 nM
- GI50 (MDA-MB-231): 800 nM
- GI50 [1]: 170 nM
- GI50 (MDA-MB-435): 570 nM
- GI50 (BT-549): 410 nM
- GI50 (T47D): 240 nM
- ΔTm (DNA): 13.1 °C
- Activity [2]: Dose-dependent effect
- GI50 (CCRF-CEM): 410 nM
- GI50 (HL-60(TB)): 250 nM
- GI50 (K562): 530 nM
- GI50 (MOLT-4): 80 nM
- GI50 [3]: 1670 nM
- GI50 (SR): < 60 nM
- GI50 (A549): 1210 nM
- GI50 (EKVX): 1720 nM
- GI50 (HOP-62): 100 nM
- GI50 (NCI-H226): 620 nM
- GI50 (NCI-H23): 490 nM
- GI50 (NCI-H322M): 2190 nM
- GI50 (NCI-H460): < 80 nM
- GI50 (NCI-H522): 140 nM
- GI50 (COLO 205): 580 nM
- GI50 (HCC 2998): 1030 nM
- GI50 (HCT-116): 130 nM
- GI50 (HCT-15): 8620 nM
- GI50 (HT-29): 270 nM
- GI50 (KM12): 2070 nM
- GI50 (SW-620): 310 nM
- GI50 (SF-295): < 30 nM
- GI50 (SF-539): 150 nM
- GI50 (SNB-19): 350 nM
- GI50 (SNB-75): 80 nM
- GI50 (U-251): 110 nM
- GI50 (LOX IMVI): 200 nM
- GI50 (Malme-3M): 1030 nM
- GI50 (SK-MEL-2): 1620 nM
- GI50 (SK-MEL-28): 1130 nM
- GI50 (UACC-257): 1330 nM
- GI50 (A498): 610 nM
